Experimental data taken from PubChem BioAssay AID1361 (SRMLSC, 2008).
pIC50: −log10 of the molar value. Activity calls are given as the source filed them. How the calls were made is not given here.

Assay: mitochondrial fusion inhibitors, confirmation, cell-based, chemical genetic, wild-type and mutant (AID 1361)
Details: Cell-based mitochondrial fusion phenotype, imaging
[1] = mutant cells, measured here: mutant cell line IC50

## CC(=O)Nc1ccc(S(=O)(=O)N2CCN(C)CC2)cc1
WT cells
  IC50: > 25 µM (inactive)
[1]
  pIC50: < 4.60

## c1ccc(Cn2c(SCc3cn4cccnc4n3)nnc2-c2ccco2)cc1
WT cells
  IC50: > 25 µM (inactive)
[1]
  pIC50: < 4.60

## O=C(NC(=S)Nc1ccccc1N1CCCCC1)c1ccccc1
WT cells
  IC50: 24.9 µM (inactive)
[1]
  pIC50: < 4.60

## Cc1ccc(S(=O)(=O)n2c3ccc(Cl)cc3c3nc(C)sc32)cc1
WT cells
  pIC50: 5.02
[1]
  pIC50: < 4.60

## CC1CC(C)(C)N2C(=O)C3(Nc4ccccc4S3)c3cccc1c32 (stereo not given)
WT cells
  IC50: > 25 µM (inactive)
[1]
  pIC50: < 4.60

## Cc1ccc(Cn2ncc3c(N4CCN(c5ccccc5C)CC4)ncnc32)cc1
WT cells
  pIC50: 5.11
[1]
  pIC50: 4.61

## Cc1cc(C)nc(N2CCC(C(=O)NCCc3ccc(F)cc3)CC2)n1
WT cells
  IC50: > 25 µM (inactive)
[1]
  pIC50: < 4.60

## O=C(CS(=O)(=O)Cc1ccccc1)Nc1cccnc1
WT cells
  IC50: > 25 µM (inactive)
[1]
  pIC50: < 4.60

## COC(=O)CN(c1ccc2c(c1)OCCO2)S(=O)(=O)c1ccccc1
WT cells
  IC50: > 25 µM (inactive)
[1]
  pIC50: < 4.60

## O=C(COC(=O)c1ccccc1C(=O)c1ccc(Cl)c([N+](=O)[O-])c1)NC1CCCCCC1
WT cells
  IC50: > 25 µM (inactive)
[1]
  pIC50: < 4.60

## Cc1ccc(-c2csc3ncnc(N4CCc5ccccc5C4)c23)cc1
WT cells
  pIC50: 5.02
[1]
  pIC50: < 4.60

## CCOC(=O)c1c(NC(=O)OC)sc(C(=O)N(C)C)c1C
WT cells
  IC50: > 25 µM (inactive)
[1]
  pIC50: < 4.60

## CS(=O)(=O)N1CCc2cc(C(=O)N3CCOCC3)ccc21
WT cells
  IC50: > 25 µM (inactive)
[1]
  pIC50: < 4.60

## CC1CCCN(C(=O)CSc2nnc(-c3cccnc3)n2C2CCCCC2)C1 (stereo not given)
WT cells
  IC50: > 25 µM (inactive)
[1]
  pIC50: < 4.60

## CN(CC(=O)O/N=C(\N)c1cccc([N+](=O)[O-])c1)S(=O)(=O)c1ccccc1
WT cells
  IC50: > 25 µM (inactive)
[1]
  pIC50: < 4.60

## N#C/C(=C\c1cccc(NC(=O)c2ccccc2Cl)c1)C(=O)NCCc1ccccc1
WT cells
  pIC50: 4.96
[1]
  pIC50: < 4.60

## O=S(Cc1ccc(Br)cc1)Cc1nnc(SCc2c(F)cccc2Cl)n1-c1ccccc1 (stereo not given)
WT cells
  IC50: > 25 µM (inactive)
[1]
  pIC50: < 4.60

## CCOc1ccc(NC(=O)C2CC(=O)N(C(C)C)C2)cc1 (stereo not given)
WT cells
  IC50: > 25 µM (inactive)
[1]
  pIC50: < 4.60

## CCOc1ccccc1NC(C)C(=O)Nc1cc(C(F)(F)F)ccc1N1CCOCC1 (stereo not given)
WT cells
  pIC50: 4.72
[1]
  pIC50: 4.65

## Cc1ccc(NC(=O)CCC(=O)OCC(=O)c2ccc(Oc3ccc([N+](=O)[O-])cc3)cc2)cc1C
WT cells
  IC50: > 25 µM (inactive)
[1]
  pIC50: < 4.60

## Cc1cc(N2CCN(C(c3ccccc3)c3ccc(Cl)cc3)CC2)n2ncnc2n1 (stereo not given)
WT cells
  pIC50: 4.86
[1]
  pIC50: 4.65

## CCCC/C(C)=C/[C@@H](NP(=O)(c1ccccc1)c1ccccc1)c1ccccc1
WT cells
  pIC50: 5.01
[1]
  pIC50: < 4.60

## CCOC(=O)CC(=O)CSc1nc(C)nc2c1oc1ccccc12
WT cells
  IC50: > 25 µM (inactive)
[1]
  pIC50: < 4.60

## COc1ccc(NC(=S)N(CCCN2CCCC2)Cc2cccn2Cc2ccc(Cl)cc2)cc1Cl
WT cells
  pIC50: 4.96
[1]
  pIC50: 4.63

## Cc1ccc(C(C)C)c(OCc2ccc(C(=O)N/N=C/c3ccc(O)cc3O)cc2)c1
WT cells
  IC50: > 25 µM (inactive)
[1]
  pIC50: < 4.60

## O=C(CNC(=S)N(Cc1ccccc1)Cc1ccccc1F)NCc1ccccc1
WT cells
  pIC50: 4.75
[1]
  pIC50: < 4.60

## COc1ccc(CNC(=O)[C@H](C)[C@@H]2C[C@@]2(C)[C@@H](NC(=O)OCc2ccccc2)c2ccccc2)cc1OC
WT cells
  pIC50: 4.65
[1]
  pIC50: < 4.60

## CC(C)CCNC(=O)CN(CC1CCCO1)C(=O)CCC(=O)Nc1ccccn1 (stereo not given)
WT cells
  IC50: > 25 µM (inactive)
[1]
  pIC50: < 4.60

## Cc1cc(C)cc(NS(=O)(=O)c2ccc(Oc3ncc(C(F)(F)F)cc3Cl)cc2)c1
WT cells
  pIC50: 4.96
[1]
  pIC50: < 4.60

## CCC(C)(C)c1ccc(Oc2ccc(N)cc2)cc1
WT cells
  IC50: > 25 µM (inactive)
[1]
  pIC50: < 4.60

## Fc1cccc(-c2cc3nc4c(c(N5CCC6(CC5)OCCO6)n3n2)CCCC4)c1
WT cells
  IC50: > 25 µM (inactive)
[1]
  pIC50: < 4.60

## O=C(CSc1nc2cc(Cl)ccc2o1)NCCc1ccccc1
WT cells
  IC50: > 25 µM (inactive)
[1]
  pIC50: < 4.60

## Cc1ccc(OCc2n[nH]c(=S)n2-c2ccccc2)cc1C
WT cells
  pIC50: 4.61
[1]
  pIC50: < 4.60

## OCCN(CCO)CC(O)COc1ccc(C23CC4CC(CC(C4)C2)C3)cc1 (stereo not given)
WT cells
  IC50: > 25 µM (inactive)
[1]
  pIC50: < 4.60

## CCOC(=O)C1=C(Nc2ccccc2)CC(C)(O)C(C(=O)OCC)C1c1ccc(Cl)cc1 (stereo not given)
WT cells
  pIC50: 4.81
[1]
  pIC50: < 4.60

## O=c1c2cn[nH]c2nc(SCc2c(F)cccc2F)n1-c1ccc(Cl)cc1
WT cells
  IC50: > 25 µM (inactive)
[1]
  pIC50: < 4.60

## Cc1ccccc1COC(=O)c1nn(-c2ccccc2)nc1N
WT cells
  IC50: > 25 µM (inactive)
[1]
  pIC50: < 4.60

## O=C(c1csc(Nc2ccccc2Cl)n1)N1CCCC1
WT cells
  IC50: > 25 µM (inactive)
[1]
  pIC50: < 4.60

## O=C(Cc1c(O)c2ccccc2[nH]c1=O)NCc1ccccc1F
WT cells
  IC50: > 25 µM (inactive)
[1]
  pIC50: < 4.60

## CCOC(=O)c1sc(NC(=O)/C=C/c2cnn(C)c2C)c(C(=O)OC(C)C)c1C
WT cells
  IC50: > 25 µM (inactive)
[1]
  pIC50: < 4.60
